Consider two compounds from ChEMBL document CHEMBL4837181 (Eur J Med Chem, 2020).

The nature of series [1]: Half life in male cynomolgus monkey at 225 mg/kg, po measured on day 1. The settings on record: in vivo. In kind it is ADME, organism-based, Macaca fascicularis.
Series [2] is described as follows: Apparent oral clearance in male cynomolgus monkey at 150 mg/kg, po BID measured on day 8. In kind it is ADME, organism-based, Macaca fascicularis. The settings on record: in vivo.
The nature of series [3]: Solubility of compound at pH 1. In kind it is physicochemical. The settings on record: buffer.
Series [4] is described as follows: Cmax in female cynomolgus monkey at 225 mg/kg, po measured on day 1. In kind it is ADME, organism-based, Macaca fascicularis. The settings on record: in vivo. More on the design: route oral, dose 225 mg/kg.
The nature of series [5]: Half life in female cynomolgus monkey at 15 mg/kg, iv measured on day 1. In kind it is ADME, organism-based, Macaca fascicularis. The settings on record: in vivo.
The nature of series [6]: Stimulation of proliferation of CD8 positive T cells (unknown origin). The settings on record: CD8-positive T cell. In kind it is functional, tissue-based.
The nature of series [7]: Cmax in po BID dosed cynomolgus monkey administered for 28 days. In kind it is ADME, organism-based, Macaca fascicularis. Further details: route oral, time 28 day; call rule not given here. The settings on record: in vivo.
Series [8] is described as follows: AUC (0 to infinity) in human at 2400 mg administered bid. In kind it is ADME. Further details: time infinity, dose 2400 mg. The settings on record: in vivo.
A short description of series [9]: Apparent oral clearance in male cynomolgus monkey at 75 mg/kg, po measured on day 1. It is filed as ADME, organism-based, Macaca fascicularis. The settings on record: in vivo.
Series [10] can be described thus: Half life in female cynomolgus monkey at 225 mg/kg, po measured on day 1. In kind it is ADME, organism-based, Macaca fascicularis. The settings on record: in vivo.
Series [11] in a line: Solubility of the compound in FaSSIF. It is filed as physicochemical.
Series [12] is described as follows: Chemical stability of compound in simulated intestinal fluid assessed as compound remaining at 5 uM measured after 3 hrs by LC-MS/MS analysis. In kind it is ADME, physicochemical. The settings on record: read-out: Stabilty.
Series [13] is described as follows: AUC (0 to 24 hrs) in female cynomolgus monkey at 75 mg/kg, po BID measured on day 8. It is filed as ADME, organism-based, Macaca fascicularis. Further details: time < 24 hr, route oral, dose 75 mg/kg. The settings on record: in vivo.
Series [14] is described as follows: Toxicity in rat assessed as decreased food assumption at 150 to 180 mg/kg, po. It is filed as organism-based. The settings on record: in vivo, dose 150-180 mg/kg.
Series [15] is described as follows: AUC (0 to 12 hrs) in female rat at 180 mg/kg, po BID measured on day 28. In kind it is ADME, organism-based. Further details: time < 12 hr, route oral, dose 180 mg/kg. The settings on record: in vivo.
The nature of series [16]: Solubility in simulated gastric fluid. It is filed as physicochemical.
The nature of series [17]: Cmax in po BID dosed rat measured on day 28. In kind it is ADME, organism-based. Further details: route oral, dose 180 mg/kg. The settings on record: in vivo, 180 mg/kg.
Series [18] in a line: Stability in human plasma assessed as parent compound remaining measured after 24 hrs by LC-MS/MS analysis. It is filed as ADME, cell-free. The settings on record: read-out: Stabilty.
Series [19] can be described thus: Toxicity in rat assessed as change in behavioral parameter. The settings on record: in vivo.
The nature of series [20]: Stability in human plasma assessed as parent compound remaining measured after 6 hrs by LC-MS/MS analysis. In kind it is ADME, cell-free. The settings on record: read-out: Stabilty.
Series [21] is described as follows: AUC (0 to 24 hrs) in male cynomolgus monkey at 15 mg/kg, iv measured on day 1. In kind it is ADME, organism-based, Macaca fascicularis. Further details: time < 24 hr, route intravenous, dose 15 mg/kg. The settings on record: in vivo.
A short description of series [22]: Toxicity in rat assessed as distended abdomen at 150 to 180 mg/kg, po. It is filed as organism-based. The settings on record: in vivo, dose 150-180 mg/kg.
Series [23] is described as follows: Drug metabolism in cynomolgus monkey assessed as indoximod formation of by measuring indoximod Tmax at 75 to 675 mg/kg, po administered as single dose. The settings on record: in vivo, dose 75-675 mg/kg. In kind it is ADME, organism-based, Macaca fascicularis.
Series [24] is described as follows: Toxicity in monkey assessed as change in cardiovascular parameter. More on the design: species or system Macaca mulatta. The settings on record: rhesus monkey, in vivo.
Series [25] is described as follows: Toxicity in cynomolgus monkey assessed as NOAEL at 150 mg/kg, po BID administered for 28 days. The settings on record: in vivo, time 28 day. It is filed as organism-based, Macaca fascicularis.
Series [26] in a line: Protein binding in human plasma. It is filed as ADME, cell-free. The settings on record: read-out: PPB.
Series [27] in a line: Chemical stability of compound in saline assessed as compound remaining at 5 uM measured after 24 hrs by LC-MS/MS analysis. It is filed as physicochemical. The settings on record: read-out: Stabilty.
Series [28] in a line: Toxicity in rat assessed as abnormal respiratory sounds at 150 to 180 mg/kg, po. In kind it is organism-based. The settings on record: in vivo, dose 150-180 mg/kg.
Series [29] deals with Cytochrome P450 2C9 (Homo sapiens, UniProt P11712). Nature of the series: Inhibition of CYP2C9 in human hepatocytes. In kind it is ADME, cell-based, Hepatocyte.
Chain of Cytochrome P450 2C9 (P11712 whole entry): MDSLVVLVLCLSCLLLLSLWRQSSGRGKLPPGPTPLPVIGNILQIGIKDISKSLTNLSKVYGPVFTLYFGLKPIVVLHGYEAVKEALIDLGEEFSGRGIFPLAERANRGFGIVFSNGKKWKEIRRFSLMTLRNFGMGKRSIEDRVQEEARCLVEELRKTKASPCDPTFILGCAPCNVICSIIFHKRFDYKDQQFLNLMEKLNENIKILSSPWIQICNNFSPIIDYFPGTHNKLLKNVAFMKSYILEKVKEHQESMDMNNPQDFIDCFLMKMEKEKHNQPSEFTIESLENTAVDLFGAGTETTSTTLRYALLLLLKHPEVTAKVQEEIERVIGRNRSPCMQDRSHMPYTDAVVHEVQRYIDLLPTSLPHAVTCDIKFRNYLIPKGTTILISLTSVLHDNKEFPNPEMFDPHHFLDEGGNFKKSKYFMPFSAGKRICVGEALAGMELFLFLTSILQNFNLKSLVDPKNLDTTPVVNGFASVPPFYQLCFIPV
Series [30] can be described thus: AUC (0 to 12 hrs) in male rat at 150 mg/kg, po BID measured on day 28. It is filed as ADME, organism-based. Further details: time < 12 hr, route oral, dose 150 mg/kg. The settings on record: in vivo.
The nature of series [31]: Inhibition of P-gp transporter activity in MDR1-MDCK2 cells. In kind it is cell-based, Canis lupus familiaris. The settings on record: mdckii-mdr1.
The nature of series [32]: Lipophilicity, logD of compound. In kind it is physicochemical. The settings on record: octanol/water.
A short description of series [33]: Drug metabolism in cynomolgus monkey assessed as indoximod formation of by measuring indoximod Tmax at 15 mg/kg, iv administered as single dose. In kind it is ADME, organism-based, Macaca fascicularis. The settings on record: in vivo.
Series [34] in a line: Drug metabolism in cynomolgus monkey assessed as ratio of indoximod to parent compound at 75 to 375 mg/kg, po BID administered […]. In kind it is ADME, organism-based, Macaca fascicularis. The settings on record: in vivo, dose 75-375 mg/kg.
The target of series [35] is T1, Cytochrome P450 1A2 (Homo sapiens, UniProt P05177).
T1 sequence (P05177 whole entry): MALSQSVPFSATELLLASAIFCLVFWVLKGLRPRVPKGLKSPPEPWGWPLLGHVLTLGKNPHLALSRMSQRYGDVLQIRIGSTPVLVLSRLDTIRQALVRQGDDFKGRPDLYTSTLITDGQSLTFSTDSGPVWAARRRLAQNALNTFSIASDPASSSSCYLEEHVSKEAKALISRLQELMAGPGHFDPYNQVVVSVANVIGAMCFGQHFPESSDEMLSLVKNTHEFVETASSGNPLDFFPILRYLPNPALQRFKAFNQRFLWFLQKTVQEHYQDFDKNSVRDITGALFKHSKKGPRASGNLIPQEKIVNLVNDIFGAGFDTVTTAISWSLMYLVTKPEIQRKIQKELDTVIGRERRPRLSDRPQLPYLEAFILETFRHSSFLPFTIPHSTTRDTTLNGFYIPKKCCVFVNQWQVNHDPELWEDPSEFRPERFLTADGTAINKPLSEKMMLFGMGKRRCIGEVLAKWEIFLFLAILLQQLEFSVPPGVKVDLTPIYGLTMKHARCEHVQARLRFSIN
As to the kind of experiment: Induction of CYP1A2 in human hepatocytes. It is filed as ADME, cell-based, Hepatocyte.

The nature of series [36]: Chemical stability of compound in simulated gastric fluid assessed as compound remaining at 5 uM measured after 1.5 hrs by LC-MS/MS analysis. It is filed as ADME, physicochemical. The settings on record: read-out: Stabilty.
Series [37] deals with T2, Cytochrome P450 2B6 (Homo sapiens, UniProt P20813).
T2 sequence (P20813 whole entry): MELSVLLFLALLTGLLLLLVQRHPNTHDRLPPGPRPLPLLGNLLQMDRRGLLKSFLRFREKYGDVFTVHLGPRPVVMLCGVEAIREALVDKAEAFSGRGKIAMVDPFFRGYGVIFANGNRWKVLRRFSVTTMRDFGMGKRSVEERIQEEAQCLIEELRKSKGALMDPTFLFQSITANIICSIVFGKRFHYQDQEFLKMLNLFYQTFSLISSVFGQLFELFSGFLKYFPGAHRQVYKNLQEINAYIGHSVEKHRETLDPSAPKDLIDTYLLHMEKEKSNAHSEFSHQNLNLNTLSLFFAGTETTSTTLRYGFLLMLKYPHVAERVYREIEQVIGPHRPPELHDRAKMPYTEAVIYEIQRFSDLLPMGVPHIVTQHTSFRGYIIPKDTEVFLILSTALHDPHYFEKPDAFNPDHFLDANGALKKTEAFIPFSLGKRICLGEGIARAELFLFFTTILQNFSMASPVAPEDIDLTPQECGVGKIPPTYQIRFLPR
Nature of the series: Inhibition of CYP2B6 in human hepatocytes. It is filed as ADME, cell-based, Hepatocyte.

Series [38] in a line: Drug metabolism in cynomolgus monkey assessed as ratio of indoximod to parent compound at 15 mg/kg, iv administered as single dose. In kind it is ADME, organism-based, Macaca fascicularis. The settings on record: in vivo.
Series [39] can be described thus: Drug metabolism in cynomolgus monkey assessed as formation of M9 metabolite at 75 to 375 mg/kg, po BID. The settings on record: in vivo, dose 75-375 mg/kg. It is filed as ADME, organism-based, Macaca fascicularis.

Usually half-life stands for how long it takes for the measured level to halve. Broadly, the CL/F is clearance divided by bioavailability, as obtained after extravascular dosing. As a reminder, the solubility is how much of the substance goes into solution per volume. One may read the Cmax as the peak of the concentration-time curve. Broadly, the EC50 is the midpoint of the concentration-response curve. One may read the AUC(0-inf) as the area under the concentration-time curve extrapolated to infinity. As a reminder, the AUC is the area under the concentration-time curve, a measure of exposure. In general, Tmax refers to the time at which the peak concentration occurs. In general, NOAEL refers to the highest dose or exposure tested at which no adverse effect was seen. Usually IC50 stands for the concentration needed to halve the response being measured. The logD is lipophilicity at a set pH, counting ionised and neutral species.

Consider `Cn1cc(C[C@@H](N)C(=O)O)c2ccccc21` [INDOXIMOD], for which the half-life was 2.9 h in series [1], 1.5 h in series [5] and 3.8 h in [10]. Besides, the CL/F in series [2] came out at 13.8 mL/min/kg; in series [9], 16.2 mL/min/kg. The solubility in [3] was greater than 20 mg/mL. The results for the Cmax in series [4] and in [7] were 68.5 µM and 103 µM, respectively. The EC50 in [6] was no less than 30 µM. In series [8], this compound gave an AUC(0-inf) of 170 µM·h.

Turning to `CCOC(=O)[C@@H](Cc1cn(C)c2ccccc12)NC(=O)[C@@H](N)CC(C)C.Cl`, the solubility is 19.1 mg/mL in series [11] and 17.1 mg/mL in [16]. Besides, the remaining at 3 h, 5 µM in series [12] is 91%. Further, the AUC at 24 h in [13] amounted to 0.0356 µM·h. In addition, the Activity result in series [14] was “Toxic”; in series [19], “Non-Toxic”; in series [22], “Toxic”; in series [24], “Non-Toxic”; in [28], “Toxic”; in series [35], “Not Active”. Moreover, the AUC at 12 h in series [15] was 1380 µM·h; in [30], 1410 µM·h. Also, the peak level in series [17] (Cmax) was 110 µM. Also, in series [18], the remaining at 24 h came out at 6%. In addition, in series [20], the remaining at 6 h is 53%. Further, in [21], the AUC stood at 0.309 µM·h. For the same compound, the Tmax in [23] and in [33] was 1 h throughout. Also, in [25], the NOAEL at 672 h turned out to be 120 mg/kg. Besides, the fraction unbound in [26] worked out at 0.5. Moreover, the remaining at 24 h, 5 µM in [27] was determined as 87%. The figures for the IC50 in series [29], in [31] and in [37] were greater than 50 µM, 27 µM and greater than 50 µM, respectively. The compound further displayed a logD in [32] of 2.3. Besides, the Ratio in [34] and in [38] was 690 throughout. The remaining at 1.5 h, 5 µM in series [36] was 92%. Further, the Drug metabolism entry in [39] is listed as “Metabolite_Detected”.
